In patent US10533015B1, “Opioid receptor antagonist prodrugs” (Nirsum Laboratories, Inc., priority 2019, dated 2020):
Read-outs that look alike come from different tables or passages of the source.

Experiments:
[1] = Liver S9 fraction stability, human; type: in vitro ADME; details: human liver S9, 1.0 mg/ml S9 protein, 2 μM, 37° C.
Protocol: (§1) Liver S9 fraction stability determination of the test compounds in dog, cynomolgus monkey and human is performed using HPLC-MS. Test compound (2 μM, 0.1% DMSO, 1% Methanol final concentration) was assessed for stability in a 50 μl phosphate buffer containing 1.0 mg/ml S9 protein from each of the three species and 5 mM D-saccharic acid-1, 4-lactone. Samples were incubated at 37° C. for 60 minutes and the % compound remaining was assessed.

[2] = Plasma stability assay, rat plasma; type: in vitro ADME; details: 10 μM, 37° C.
How it was run: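 In rat plasma, five time points up to 1440 min (0, 15, 120, 480, 1440) were analysed. Human, dog and cynomolgus plasma received 2 μM compound at 1% final solvent, 37 °C, over 0–120 min (0, 10, 30, 60, 120). Values are % parent left, HPLC-MS, n=2.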

[3] = Liver S9 fraction stability, monkey; type: in vitro ADME, cynomolgus monkey; details: monkey liver S9, 1.0 mg/ml S9 protein, 2 μM, 37° C.
Protocol: as §1

[4] = Plasma stability assay, monkey plasma; type: in vitro ADME, cynomolgus monkey; details: 2 μM, 37° C.
Protocol: (§2) Plasma stability determination of the test compounds in rat, dog, cynomolgus monkey and human plasma is performed using HPLC-MS. For rat, incubations are carried out in 96-well polypropylene plates in 5 aliquots of 70 μL each (one for each time point). […] Five time points are analyzed (0, 15, 120, 480 and 1440 min). […] All incubations are performed in duplicates. The samples are analyzed by HPLC-MS. The percentage of parent compound remaining after incubation in plasma is determined.

[5] = Plasma stability assay, human plasma; type: in vitro ADME; details: 2 μM, 37° C.
Protocol: as §2

[6] = Plasma stability assay, dog plasma; type: in vitro ADME; details: 2 μM, 37° C.
Protocol: as §2

[7] = Liver S9 fraction stability, dog; type: in vitro ADME; details: dog liver S9, 1.0 mg/ml S9 protein, 2 μM, 37° C.
Protocol: as §1

[8] = heating temp. 60 °C, obs. temp. 25 °C
[9] = heating temp. 40 °C, obs. temp. 40 °C

| Structure (SMILES) | % remaining at 60 minutes [1] [%] | % remaining at time point ([2]; 0 min) [%] | % remaining at time point ([2]; 15 min) [%] | % remaining at time point ([2]; 120 min) [%] | % remaining at time point ([2]; 480 min) [%] | % remaining at time point ([2]; 1440 min) [%] | % remaining at 60 minutes [3] [%] | % remaining at time point ([4]; 0 min) [%] | % remaining at time point ([4]; 15 min (head)) [%] | % remaining at time point ([4]; 120 min (head)) [%] | % remaining at time point ([4]; 480 min (head)) [%] | % remaining at time point ([4]; 1440 min (head)) [%] | % remaining at time point ([5]; 0 min) [%] | % remaining at time point ([5]; 15 min (head)) [%] | % remaining at time point ([5]; 120 min (head)) [%] | % remaining at time point ([5]; 480 min (head)) [%] | % remaining at time point ([5]; 1440 min (head)) [%] | % remaining at time point ([6]; 0 min) [%] | % remaining at time point ([6]; 15 min (head)) [%] | % remaining at time point ([6]; 120 min (head)) [%] | other results |
| --- | --- | --- | --- | --- | --- | --- | --- | --- | --- | --- | --- | --- | --- | --- | --- | --- | --- | --- | --- | --- | --- |
| C=C1CC[C@@]2(O)C3Cc4ccc(OCOC(=O)OCCCCCCCCCCCC)c5c4[C@@]2(CCN3CC2CC2)[C@H]1O5 [Compound 24, (((4aS,7aS,12bS)-3-(cyclopropylmethyl)-4a-hydroxy-7-methylene-2,3,4,4a,5,6,7,7a-octahydro-1H-4,12-methanobenzofuro[3,2-e]isoquinolin-9-yl)oxy)methyl dodecyl carbonate] | 3.5 | 100 | 32 | 11.8 | 8.2 | 3 | 3 | 100 | 90.7 | 93.5 | 96.2 | 97.8 | 100 | 94 | 102.3 | 105.3 | 112.5 | 100 | 94.7 | 104.5 | % remaining at time point ([6]; 480 min (head)): 115.7%; % remaining at time point ([6]; 1440 min (head)): 116.2%; Approximate Solubility (mg/mL) in Excipient: Cottonseed oil [8]: >403 mg/mL; Approximate Solubility (mg/mL) in Excipient: Sesame oil [8]: 338 to 368 mg/mL; Equilibrium solubility (mg/mL) Water [9]: <0.001 mg/mL; % remaining at 60 minutes [7]: 3.6% |
| C=C1CC[C@@]2(O)C3Cc4ccc(OC(=O)CCCCCCC/C=C/CCCCCCCC)c5c4[C@@]2(CCN3CC2CC2)[C@H]1O5 [Compound 15, (4aS,7aS,12bS)-3-(cyclopropylmethyl)-4a-hydroxy-7-methylene-2,3,4,4a,5,6,7,7a-octahydro-1H-4,12-methanobenzofuro[3,2-e]isoquinolin-9-yl (E)-octadec-9-enoate] | 59.8 | 100 | 72 | 69.3 | 52 | 35 | 76.7 | 100 | 74.5 | 72.7 | 80.6 | 76.5 | 100 | 83.3 | 82.5 | 107.1 | 109.0 | 100 | 82.5 | 80.6 | % remaining at time point ([6]; 480 min (head)): 90.1%; % remaining at time point ([6]; 1440 min (head)): 86.1%; Approximate Solubility (mg/mL) in Excipient: Cottonseed oil [9]: <51 mg/mL; Approximate Solubility (mg/mL) in Excipient: Cottonseed oil [8]: >402.6 mg/mL; Approximate Solubility (mg/mL) in Excipient: Cottonseed oil (heating temp. 60 °C, obs. temp. 40 °C): >401 mg/mL; Approximate Solubility (mg/mL) in Excipient: Ethanol (Ethanol, heating temp. 40 °C, obs. temp. 40 °C): <20 mg/mL; Approximate Solubility (mg/mL) in Excipient: Sesame oil [9]: <52 mg/mL; Approximate Solubility (mg/mL) in Excipient: Sesame oil [8]: >396.5 mg/mL; Equilibrium solubility (mg/mL) Water [9]: <0.0002 mg/mL; % remaining at 60 minutes [7]: 80.9% |
